# In publication PMC10623575, “Discovery of Potent and Selective CB2 Agonists Utilizing a Function-Based Computational Screening Protocol” (ACS Chemical Neuroscience, 2023):
# Where two headings read alike, the source gives them in different places.
# Columns and labels:
# CB2 receptor [1] = biological target: T1, CB2 receptor (Homo sapiens, UniProt P34972); test: Calcium mobilization assay, antagonist mode (CP55940 challenge), CHO expressing CB2; assay type: cell-based; conditions: for SI, selectivity index for the CB2, SI = IC50(CB1)/IC50(CB2): antagonist mode
# T1 construct: expressed in transfected cells
# Method: (§1) Chinese hamster ovarian (CHO) cells collected from the American Type Culture Collection were maintained in Ham’s F-12K (Kaighn’s) supplemented with 100 mg/L streptomycin, 100 mg/L penicillin, and 10% fetal bovine serum (FBS) in a humidified atmosphere of 5% CO2 at 37 °C. CHO cells were co-transfected with plasmids encoding CB1 or CB2 and Gα16 by electroporation. To establish stable cell lines, transfected cells were seeded on 10 cm dishes with 40 μg/mL blasticidin and 1 mg/mL G418 in culture medium after 24 h. The selection medium was substituted once every 3 days until colonies formed. A solitary colony was obtained, propagated, and assessed using a calcium mobilization assay to verify the function and expression of the transfected genes.
# (§2) 3 × 10^4 cells/well were employed to seed cells onto 96-well plates, which were subsequently incubated throughout the night. Cells were then treated with 2 μM Fluo-4 AM in HBSS (0.3 mM Na2HPO4, 5.4 mM KCl, 4.2 mM NaHCO3, 0.4 mM KH2PO4, 0.5 mM MgCl2, 1.3 mM CaCl2, 137 mM NaCl, 0.6 mM MgSO4, 250 μM sulfinpyrazone, and 5.6 mM D-glucose, pH 7.4) for 45 min at 37 °C. […] Meanwhile, the change of intracellular calcium was measured at an excitation wavelength of 525 and 485 nm. For antagonist mode, the extra dye was washed out and 50 μL of HBSS with test compounds, DMSO (negative control), or AM630 (positive control) was introduced. […] The change of intracellular calcium was captured at an excitation wavelength of 525 and 485 nm. To be noticed, each experiment has been independently replicated three times, with three repetitions and eight gradients each time.
# (§3) The collected data were processed with GraphPad Prism software (GraphPad). […] Means ± SEM were computed utilizing this software. The analyses were evaluated by the Student t test. When the p value is smaller than 0.05, the result is statistically significant.
# CB1 receptor [2] = biological target: T2, CB1 receptor (Homo sapiens, UniProt P21554); test: Calcium mobilization assay, antagonist mode (CP55940 challenge), CHO expressing CB1; assay type: cell-based
# Method: as §1, §2, §3
# CB2 receptor [3] = biological target: T1, CB2 receptor; conditions: representative ligands for active CB2 (Table S7); ref SI refs 3, 6, 7, 10, 11; read-out: Experimental Ki, Active CB2; cited from earlier work
# CB2 receptor [4] = biological target: T1, CB2 receptor; test: Calcium mobilization assay, agonist mode, CHO expressing CB2 and Gα16; assay type: cell-based
# Method: as §1
# (§4) 3 × 10^4 cells/well were employed to seed cells onto 96-well plates, which were subsequently incubated throughout the night. […] For antagonist mode, the extra dye was washed out and 50 μL of HBSS with test compounds, DMSO (negative control), or AM630 (positive control) was introduced. […] To be noticed, each experiment has been independently replicated three times, with three repetitions and eight gradients each time.
# as §3
# CB1 receptor [5] = biological target: T2, CB1 receptor; test: Calcium mobilization assay, agonist mode, CHO expressing CB1 and Gα16; assay type: cell-based; conditions: agonist activity, CHO expressing CB1, mean ± SEM; read-out: CB1 EC50
# Method: as §1, §4, §3
# [6] = antagonist activity, CHO expressing CB2, three independent assays, mean ± SEM, read-out: CB2 IC50
# [7] = single independent experiment, replicate 1, read-out: CB2 antagonist(μM) replicate 1
# [8] = single independent experiment, replicate 2, read-out: CB2 antagonist(μM) replicate 2
# [9] = single independent experiment, replicate 3, read-out: CB2 antagonist(μM) replicate3
# [10] = antagonist activity, CHO expressing CB1, read-out: CB1 IC50
# [11] = CB2 IC50, antagonist activity, CHO expressing CB2, three independent assays, mean ± SEM
# [12] = CB2 antagonist(μM) replicate 1, single independent experiment, replicate 1
# [13] = CB2 antagonist(μM) replicate 2, single independent experiment, replicate 2
# [14] = CB2 antagonist(μM) replicate3, single independent experiment, replicate 3
# [15] = agonist activity, CHO expressing CB2, three independent assays, mean ± SEM, read-out: CB2 EC50
# T2 sequence (P21554 whole entry): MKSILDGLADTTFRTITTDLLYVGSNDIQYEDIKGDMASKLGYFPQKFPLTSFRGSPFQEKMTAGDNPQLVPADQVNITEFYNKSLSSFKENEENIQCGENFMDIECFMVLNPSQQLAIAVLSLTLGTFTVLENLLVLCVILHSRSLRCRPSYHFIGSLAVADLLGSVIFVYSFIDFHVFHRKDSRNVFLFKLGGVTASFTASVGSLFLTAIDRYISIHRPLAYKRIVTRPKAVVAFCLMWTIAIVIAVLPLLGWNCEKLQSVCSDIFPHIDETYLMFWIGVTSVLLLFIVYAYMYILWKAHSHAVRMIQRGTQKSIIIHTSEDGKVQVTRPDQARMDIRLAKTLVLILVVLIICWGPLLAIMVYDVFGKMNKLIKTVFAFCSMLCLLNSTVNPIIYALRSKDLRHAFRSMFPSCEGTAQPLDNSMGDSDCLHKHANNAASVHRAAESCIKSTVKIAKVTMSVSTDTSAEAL
# T1 sequence (P34972 whole entry): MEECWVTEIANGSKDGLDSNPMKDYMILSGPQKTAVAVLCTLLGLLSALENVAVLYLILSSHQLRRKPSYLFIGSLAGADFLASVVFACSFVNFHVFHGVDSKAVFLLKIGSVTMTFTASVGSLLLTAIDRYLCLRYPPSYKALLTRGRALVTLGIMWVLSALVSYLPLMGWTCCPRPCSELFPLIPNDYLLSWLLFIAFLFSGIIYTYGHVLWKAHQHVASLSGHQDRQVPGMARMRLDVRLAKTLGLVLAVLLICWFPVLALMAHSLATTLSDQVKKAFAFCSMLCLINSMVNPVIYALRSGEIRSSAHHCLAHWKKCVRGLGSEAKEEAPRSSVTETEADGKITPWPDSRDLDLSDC
compound,measurement,setting,value
"COc1ccc(C=C2SC(=O)N(C(C)C)C2=O)cc1OC(=O)CCCCl [Compound 38, 5-((3-Isopropyl-2,4-dioxothiazolidin-5-ylidene)methyl)-2-methoxyphenyl 4-Chlorobutanoate]",IC50,CB2 receptor [1]; [6],0.4 ± 0.16 µM
same,"SI, selectivity index for the CB2, SI = IC50(CB1)/IC50(CB2)",CB2 receptor [1],>25
same,IC50,CB2 receptor [1]; [7],0.715 µM
same,IC50,CB2 receptor [1]; [8],0.256 µM
same,IC50,CB2 receptor [1]; [9],0.224 µM
same,IC50,CB1 receptor [2]; [10],> 10000 nM
"CCCS(=O)(=O)Oc1cc(C=C2SC(=O)N(C(C)C)C2=O)ccc1OC [Compound 39, 5-((3-Isopropyl-2,4-dioxothiazolidin-5-ylidene)methyl)-2-methoxyphenyl Propane-1-sulfonate]",IC50,CB2 receptor [1]; [6],0.33 ± 0.09 µM
same,"SI, selectivity index for the CB2, SI = IC50(CB1)/IC50(CB2)",CB2 receptor [1],23
same,IC50,CB2 receptor [1]; [7],0.445 µM
same,IC50,CB2 receptor [1]; [8],0.115 µM
same,IC50,CB2 receptor [1]; [9],0.44 µM
same,IC50,CB1 receptor [2]; [10],> 10000 nM
CCCCCn1cc(C(=O)C2C(C)(C)C2(C)C)c2ccccc21 [UR-144],Ki,CB2 receptor [3],1.8 nM
"CCCS(=O)(=O)Oc1cc(C=C2SC(=O)N(CC(C)C)C2=O)ccc1OC [Compound 40, 5-((3-Isobutyl-2,4-dioxothiazolidin-5-ylidene)methyl)-2-methoxyphenyl Propane-1-sulfonate]",IC50,CB2 receptor [1]; [11],2.99 ± 1.42 µM
same,IC50,CB2 receptor [1]; [12],2.64 µM
same,IC50,CB2 receptor [1]; [13],5.6 µM
same,IC50,CB2 receptor [1]; [14],0.728 µM
same,"SI, selectivity index for the CB2, SI = IC50(CB1)/IC50(CB2)",CB2 receptor [1],> 3
same,IC50,CB1 receptor [2],> 10000 nM
"COc1ccc(C(=O)c2c(C)n(CCN3CCOCC3)c3cc(I)ccc23)cc1 [AM630, reference compound]",IC50,CB2 receptor [1]; [11],0.34 ± 0.1 µM
same,IC50,CB2 receptor [1]; [12],0.153 µM
same,IC50,CB2 receptor [1]; [13],0.319 µM
same,IC50,CB2 receptor [1]; [14],0.55 µM
"COc1ccc(C=C2SC(=O)N(C(C)C)C2=O)cc1OC(=O)c1cccc(Br)c1 [Compound 28, 5-((3-Isopropyl-2,4-dioxothiazolidin-5-ylidene)methyl)-2-methoxyphenyl 3-Bromobenzoate]",EC50,CB2 receptor [4]; [15],2.96 ± 2.3 µM
same,"SI, selectivity index for the CB2, SI = EC50(CB1)/EC50(CB2)",CB2 receptor [4]; agonist mode,>3
same,EC50,"CB2 receptor [4]; single independent experiment, replicate 1, read-out: CB2 agonist(μM) replicate 1",0.637 µM
same,EC50,"CB2 receptor [4]; single independent experiment, replicate 2, read-out: CB2 agonist(μM) replicate 2",7.56 µM
same,EC50,"CB2 receptor [4]; single independent experiment, replicate 3, read-out: CB2 agonist(μM) replicate3",0.693 µM
same,EC50,CB1 receptor [5],> 10000 nM
"CC(C)N1C(=O)SC(=Cc2cccc(OCc3ccccc3C#N)c2)C1=O [Compound 25, 2-((3-((3-Isopropyl-2,4-dioxothiazolidin-5-ylidene)methyl)phenoxy)methyl) Benzonitrile]",EC50,CB2 receptor [4]; [15],> 10 µM
same,EC50,CB1 receptor [5],> 10000 nM
"CC(C)N1C(=O)SC(=Cc2ccccc2OCc2cccc(Br)c2)C1=O [Compound 7, 5-(2-((3-Bromobenzyl)oxy)benzylidene)-3-isopropylthiazolidine-2,4-dione]",CB1 and CB2 biological activity (in words),"CB2 receptor [4]; CB1 and CB2 calcium mobilization assays, up to 10 μM",do not show biological activities
same,EC50,CB2 receptor [4]; [15],> 10 µM
same,EC50,CB1 receptor [5],> 10000 nM
"COc1ccc(C=C2SC(=O)N(CC(C)C)C2=O)cc1OC(=O)c1ccc(CCl)cc1 [Compound 36, 5-((3-Isobutyl-2,4-dioxothiazolidin-5-ylidene)methyl)-2-methoxyphenyl 4-(Chloromethyl)benzoate]",EC50,CB2 receptor [4]; [15],> 10 µM
same,EC50,CB1 receptor [5],> 10000 nM
